Experimental data taken from patent US11746103B2, “ALK-5 inhibitors and uses thereof” (Sumitomo Pharma Oncology, Inc., priority 2020, dated 2023).
pIC50: −log10 of the molar value. Like-named read-outs stand apart in the source and are kept apart here.

Legend:
ALK-5 = ALK-5 (Homo sapiens (Human), UniProt P36897); test: LanthaScreen Eu Kinase Binding Assay, ALK-5; conditions: for pIC50: read-out: Kinase Inhibition: ALK5 IC50
Method: Activity determinations and selectivity were conducted by Thermo Fisher Scientific “SelectScreen™ Biochemical Kinase Profiling Service” using their “LanthaScreen™ Eu Kinase Binding Assay Screening” (www.thermofisher.com/selectscreen). Binding of an Alexa Fluor™ conjugate or “tracer” to a kinase is detected by addition of a Eu-labeled anti-tag antibody. Binding of the tracer and antibody to a kinase results in a high degree of FRET, whereas displacement of the tracer with a kinase inhibitor results in a loss of FRET. This assay is carried out by mixing the compound tested with the reagents and reading, no development step is required. Life Technologies' Kinase Tracers are based on ATP-competitive kinase inhibitors, making them suitable for detection of any compounds that bind to the ATP site. Inhibitors that bind the ATP site include both Type I kinase inhibitors, which bind solely to the ATP site, and Type II inhibitors (e.g., Gleevec®/Imatinib, Sorafenib, BIRB-796), which bind to both the ATP site and a second site often referred to as the allosteric site. […] For 10 point titrations, 3-fold serial dilutions are conducted from the starting concentration (see Table 2 below). [table] All Kinase/Antibody Mixtures are diluted to a 2× working concentration in the specified kinase buffer. The 4× AlexaFluor labeled Tracer is prepared in Kinase Buffer. Bar-coded, low volume, white 384-well plate (Greiner Cat. #784207) […] 2. 3.84 μL—Kinase Buffer […] 4. 4.0 μL—4× Tracer 5. 30-second plate shake 6. 60-minute incubation at room temperature 7. […] The LanthaScreen Eu Kinase Binding Assay data is analyzed using the equations in Table 3 for each set of data points. [table] Data generated were plotted using the graphing software XLfit from IDBS. The dose response curve is curve fit to model number 205.

[1] = system: TGF-beta induced SMAD signaling; test: RDSR (RD SMAD reporter) Cellular Reporter Assay; assay type: cell-based; conditions: Homo sapiens; for pIC50: 200 pg/ml rhTGF-beta1, 24 h, read-out: RD-SMAD reporter activity
Source text: TGF-β signaling is triggered when the activated TGF-β homodimer binds to the TGF-β receptor 2, which in turn leads to the recruitment and phosphorylation of TGF-β receptor 1 (ALK5). Activated TGF-β receptor 1 phosphorylates the signal transduction molecules SMAD2 and SMAD3. These bind to common mediator SMAD4 and translocate to the nucleus where they bind to short conserved DNA sequences called the SMAD binding element and induce the transcription of various target genes. […] Certain example compounds were also or alternatively assayed using the RDSR Cellular Reporter Assay. Overview and Design: The RD SMAD reporter (RDSR) cell line was generated by stabily integrating the SMAD cellular reporter plasmid (Promega, pGL4.48[luc2P/SBE/Hygro]) into the human rhabdomyosarcoma cell line RD (ATCC, CCL-136). Once SMAD signaling is triggered, with, for example, the addition of TGF-β 1, receptor activated SMADs bind the SMAD binding elements (SBEs) leading to the expression of intracellular luciferase. To determine the potency of compounds at inhibiting TGF-beta induced SMAD signaling, the RDSR reporter system was utilized. The rhabdomyosarcoma line RD (ATCC, CCL-136) was transfected with a SMAD reporter vector (Promega, E3671) and a polyclonal stable cell line was selected using hygromycin B. The transfected vector contains three copies of a SMAD-binding element (SBE) that drive transcription of the luciferase reporter gene luc2P (Photinus pyralis). luc2P is a synthetically-derived luciferase sequence with humanized codon optimization that is designed for high expression and reduced anomalous transcription. The luc2P gene contains hPEST, a protein destabilization sequence, which allows luc2P protein levels to respond more quickly than those of luc2 to induction of transcription. The intracellular luciferase is quantified by the addition of equal volume (100 μl) of ONE-GLO substrate (Promega, E6120) and read within ten minutes on the Envision plate reader. The stable RDSR cell line was tested by evaluating the response to human TGF-β1 (R&D Systems, 7754-BH-005) as well as human myostatin (R&D Systems, 788-G8-010/CF) in a concentration dependent manner after twenty-four hours of stimulation. […] For compound evaluation, the tool drugs Galunisertib and Vactosertib were included as positive controls. The tool drugs and the compounds of the invention being tested were all incubated with cells for one hour at 37° C. before stimulation with 200 pg/ml rhTGF-beta1 for twenty-four hours. The activity of the reporter was determined with the addition of ONE-GLO (Promega) substrate and luminescence counts collected on the Envision plate reader (Perkin Elmer). […] The activity of compounds of the invention as determined using this method are reported in the third column of Table 1, below.

Chain of ALK-5 (P36897 34-503): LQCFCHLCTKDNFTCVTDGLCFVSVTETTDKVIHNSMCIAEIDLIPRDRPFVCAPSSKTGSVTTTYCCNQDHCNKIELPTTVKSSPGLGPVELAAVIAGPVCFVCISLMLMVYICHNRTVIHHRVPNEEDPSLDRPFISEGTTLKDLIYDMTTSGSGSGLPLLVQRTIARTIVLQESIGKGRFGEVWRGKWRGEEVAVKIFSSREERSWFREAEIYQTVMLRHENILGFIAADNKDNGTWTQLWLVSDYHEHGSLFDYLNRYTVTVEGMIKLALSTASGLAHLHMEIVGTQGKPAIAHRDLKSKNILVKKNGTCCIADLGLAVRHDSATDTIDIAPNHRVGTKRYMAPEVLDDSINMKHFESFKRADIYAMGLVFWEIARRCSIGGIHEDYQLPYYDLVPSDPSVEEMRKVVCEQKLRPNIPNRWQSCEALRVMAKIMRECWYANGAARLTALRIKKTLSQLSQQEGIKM

Row | SMILES | Kinase Selectivity: ALK2 IC50/ ALK5 IC50 (ALK-5) | pIC50 (ALK-5) | pIC50 [1] | IC50 ([1]; 24 h, read-out: RD-SMAD reporter activity (nM))
1 | Cc1cccc2c(Nc3ccnc(Nc4ccc(CN5CCOCC5)cc4)n3)cnnc12 [EX-25, N4-(8-methylcinnolin-4-yl)-N2-(4-(morpholinomethyl)phenyl)pyrimidine-2,4-diamine] | (++) (10<ALK2/ALK5<100=[++]) | > 8.00 | > 7.00 | –
2 | Cc1c(F)ccc2c(Nc3ccnc(Nc4ccc(N5CCNCC5)cc4)n3)cnnc12 [EX-02, N4-(7-fluoro-8-methylcinnolin-4-yl)-N2-(4-(piperazin-1-yl)phenyl)-pyrimidine-2,4-diamine] | (++) (10<ALK2/ALK5<100=[++]) | > 8.00 | > 7.00 | –
3 | Cc1cccc2c(Nc3ccnc(Nc4ccc(N5CCNCC5)cc4F)n3)cnnc12 [EX-22, N2-(2-fluoro-4-(piperazin-1-yl)phenyl)-N4-(8-methylcinnolin-4-yl)pyrimidine-2,4-diamine] | (+++) (100≤ALK2/ALK5=[+++]) | > 8.00 | > 7.00 | –
4 | Cc1cccc2c(Nc3ccnc(Nc4ccc(N5CCCCC5)cc4)n3)cnnc12 [EX-55, N4-(8-methylcinnolin-4-yl)-N2-(4-(piperidin-1-yl)phenyl)pyrimidine-2,4-diamine] | (++) (10<ALK2/ALK5<100=[++]) | > 8.00 | > 7.00 | –
5 | Cc1cccc2c(Nc3ccnc(Nc4ccc(N5CCNCC5)cc4)n3)cnnc12 [EX-48, N4-(8-methylcinnolin-4-yl)-N2-(4-(piperazin-1-yl)phenyl)pyrimidine-2,4-diamine] | (++) (10<ALK2/ALK5<100=[++]) | > 8.00 | > 7.00 | –
6 | Cc1cccc2c(Nc3ccnc(Nc4ccc(N5CCN(C)CC5)nc4)n3)cnnc12 [EX-23, N4-(8-methylcinnolin-4-yl)-N2-(6-(4-methylpiperazin-1-yl)pyridin-3-yl)pyrimidine-2,4-diamine] | (++) (10<ALK2/ALK5<100=[++]) | > 8.00 | > 7.00 | –
7 | Clc1cccc2c(Nc3ccnc(Nc4ccc(N5CCNCC5)cc4)n3)cnnc12 [EX-50, N4-(8-chlorocinnolin-4-yl)-N2-(4-(piperazin-1-yl)phenyl)pyrimidine-2,4-diamine] | (++) (10<ALK2/ALK5<100=[++]) | > 8.00 | 6.00 to 7.00 | –
8 | Cc1cccc2c(Nc3ccnc(Nc4cc(N5CCOCC5)cc(C(F)(F)F)c4)n3)cnnc12 [EX-39, N4-(8-methylcinnolin-4-yl)-N2-(3-morpholino-5-(trifluoromethyl)phenyl)pyrimidine-2,4-diamine] | (+) (≤10=[+]) | > 8.00 | 6.00 to 7.00 | –
9 | Cc1cc(F)cc2c(Nc3ccnc(Nc4ccc(N5CCNCC5)cc4)n3)cnnc12 [EX-15, N4-(6-fluoro-8-methyl-cinnolin-4-yl)-N2-(4-(piperazin-1-yl)phenyl)-pyrimidine-2,4-diamine] | (++) (10<ALK2/ALK5<100=[++]) | > 8.00 | > 7.00 | –
10 | Cc1cccc2c(Nc3ccnc(Nc4ccc(N5CCNCC5)c(F)c4)n3)cnnc12 [EX-08, N2-(3-fluoro-4-(piperazin-1-yl)phenyl)-N4-(8-methylcinnolin-4-yl)pyrimidine-2,4-diamine] | (++) (10<ALK2/ALK5<100=[++]) | > 8.00 | – | < 100 nM
11 | Cc1cccc2c(Nc3ccnc(Nc4ccc(F)c(N5CCOCC5)c4)n3)cnnc12 [EX-38, N2-(4-fluoro-3-morpholinophenyl)-N4-(8-methylcinnolin-4-yl)pyrimidine-2,4-diamine] | (++) (10<ALK2/ALK5<100=[++]) | 7.00 to 8.00 | > 7.00 | –
12 | Cc1cccc2c(Nc3ccnc(Nc4ccc(N5CC6CCC(C5)N6C)cc4)n3)cnnc12 [EX-27, N2-(4-(8-methyl-3,8-diazabicyclo[3.2.1]octan-3-yl)phenyl)-N4-(8-methylcinnolin-4-yl)pyrimidine-2,4-diamine] | (++) (10<ALK2/ALK5<100=[++]) | > 8.00 | > 7.00 | –
13 | c1cc(Nc2nccc(Nc3cnnc4c(C5CC5)cccc34)n2)cc(N2CCOCC2)c1 [EX-57, N4-(8-cyclopropylcinnolin-4-yl)-N2-(3-morpholinophenyl)pyrimidine-2,4-diamine] | (++) (10<ALK2/ALK5<100=[++]) | > 8.00 | > 7.00 | –
14 | Cc1nnc2c(C)cccc2c1Nc1ccnc(Nc2cccc(N3CCOCC3)c2)n1 [EX-51, N4-(3,8-dimethylcinnolin-4-yl)-N2-(3-morpholinophenyl)pyrimidine-2,4-diamine] | (+) (≤10=[+]) | > 8.00 | 6.00 to 7.00 | –
15 | CN1CCN(c2ccc(Nc3nccc(Nc4cnnc5c(Cl)cccc45)n3)cc2)CC1 [EX-49, N4-(8-chlorocinnolin-4-yl)-N2-(4-(4-methylpiperazin-1-yl)phenyl)pyrimidine-2,4-diamine] | (++) (10<ALK2/ALK5<100=[++]) | > 8.00 | > 7.00 | –
16 | Cc1c(F)ccc2c(Nc3ccnc(Nc4ccc(N5CCN(C)CC5)cc4)n3)cnnc12 [EX-01, N4-(7-fluoro-8-methylcinnolin-4-yl)-N2-(4-(4-methyl-piperazin-1-yl)-phenyl)-pyrimidine-2,4-diamine] | (++) (10<ALK2/ALK5<100=[++]) | > 8.00 | > 7.00 | –
17 | Cc1cccc2c(Nc3ccnc(Nc4ccc(CC5CCNCC5)cc4)n3)cnnc12 [EX-05, N4-(8-methylcinnolin-4-yl)-N2-(4-(piperidin-4-ylmethyl)pheny)pyrimidine-2,4-diamine] | (++) (10<ALK2/ALK5<100=[++]) | > 8.00 | 6.00 to 7.00 | –
18 | Cc1cccc2c(Nc3ccnc(Nc4cccc(CN5CCOCC5)c4)n3)cnnc12 [EX-47, N4-(8-methylcinnolin-4-yl)-N2-(3-(morpholinomethyl)phenyl)pyrimidine-2,4-diamine] | (++) (10<ALK2/ALK5<100=[++]) | > 8.00 | > 7.00 | –
19 | Cc1cccc2c(Nc3ccnc(Nc4ccc(C5CCOCC5)cc4)n3)cnnc12 [EX-46, N4-(8-methylcinnolin-4-yl)-N2-(4-(tetrahydro-2H-pyran-4-yl)phenyl)pyrimidine-2,4-diamine] | (++) (10<ALK2/ALK5<100=[++]) | > 8.00 | > 7.00 | –
20 | Cc1cccc2c(Nc3ccnc(Nc4cc(CN5CCNCC5)ccc4F)n3)cnnc12 [EX-03, N2-(2-fluoro-5-(piperazin-1-yl-methyl)phenyl)-N4-(8-methyl-cinnolin-4-yl)-pyrimidine-2,4-diamine] | (++) (10<ALK2/ALK5<100=[++]) | > 8.00 | 6.00 to 7.00 | –
21 | Cc1cccc2c(Nc3ccnc(Nc4cc(F)cc(N5CCOCC5)c4)n3)cnnc12 [EX-44, N2-(3-fluoro-5-morpholinophenyl)-N4-(8-methylcinnolin-4-yl)pyrimidine-2,4-diamine] | (++) (10<ALK2/ALK5<100=[++]) | > 8.00 | > 7.00 | –
